{"source": "patent US20260007756A1", "about": "“COMPOUND AND USE THEREOF” (COHERENT BIOPHARMA (SUZHOU) LIMITED, priority 2022, published 2026)", "key": {"Solubility study in PBS": {"experiment": "Solubility study in PBS", "format": "physicochemical", "conditions": "aqueous buffer, thermodynamic from solid; PBS (pH 7.2 to 7.4); read-out: Solubility, concentration", "method": "The mixture was vortexed for 2 min until the solid was dissolved. The solubility was calculated as: C=m/V, C: concentration, m: sample weight, V: PBS total volume."}, "A549": {"tested_on": "A549", "experiment": "Expansion inhibition of tumor cells (Example 7, CCK-8)", "format": "cell-based", "conditions": "Homo sapiens, A549 (no detectable FOLR1 or PSMA expression), 72 h", "method": "(§1) Samples were serially diluted with medium (serially 5-fold diluted from 10 μM) to 9 concentrations. […] Negative and blank controls were set.\n(§2) A CCK-8 developing solution was added at 10 μL/well (10% of the liquid volume in the wells). The plates were incubated at 37° C. for a proper time (the OD value was controlled within the range of 1.0-2.5 as possible). The plate covers were removed, and the 96-well plates were loaded on a microplate reader (Molecular Devices SpectraMax iD5) to read the measurement at 450 nm."}, "HepG2": {"tested_on": "HepG2", "experiment": "Expansion inhibition of tumor cells (Example 7, CCK-8)", "format": "cell-based", "conditions": "Homo sapiens, HepG2 (no detectable FOLR1 or PSMA expression), 72 h", "method": "as §1, §2"}, "NCI-H460": {"tested_on": "NCI-H460", "experiment": "Expansion inhibition of tumor cells (Example 7, CCK-8)", "format": "cell-based", "conditions": "Homo sapiens, NCI-H460 (no detectable FOLR1 or PSMA expression), 72 h", "method": "as §1, §2"}, "PC-3": {"tested_on": "PC-3", "experiment": "Expansion inhibition of tumor cells (Example 7, CCK-8)", "format": "cell-based", "conditions": "Homo sapiens, PC-3 (no detectable FOLR1 or PSMA expression), 72 h", "method": "as §1, §2"}, "[1]": {"tested_on": "human liver cancer HepG2 cell subcutaneous xenograft tumor", "experiment": "Pharmacodynamic assessment, HepG2 xenograft model", "format": "in vivo, BALB/c nude mouse", "conditions": "4 mg/kg iv biw×3, day 36 after grouping", "method": "Objective: Pre-clinical assessment of the efficacy of CR202 series of compounds in BALB/c nude mouse model with human liver cancer HepG2 cell subcutaneous xenograft tumor with no FOLR1 or PSMA receptor expression.\nProcedures: 0.1 mL (10×10^6 cells) of HepG2 cells was subcutaneously inoculated on the right back of each mouse, and the mice were randomized into a modeling control group and treatment groups after the mean tumor volume was approximately 100-150 mm^3. The treatment was started on the first day of grouping. Before the start of administration, the animals were weighed, and the tumor volume was measured with a vernier caliper. After the grafting of tumor cells, the routine monitoring included the effect on tumor growth and the effect of treatment on the normal behavior of the animals, specifically the activity, food and water intake, weight gain or loss, the eyes, the hair, and other abnormal conditions. After the administration was started, the body weight and tumor size of the mice were measured periodically. The calculation formula for tumor volume: Tumor volume V (mm^3)=1/2×(a×b^2) (where a denotes the long diameter and b notes the short diameter). The calculation formula for the tumor growth inhibition, TGI (%), is TGI %=(1−T/C)×100% (T and C are the mean tumor volume of the treatment group and control group, respectively, at a particular time point)."}, "[2]": {"tested_on": "human breast cancer MDA-MB-231 cell subcutaneous xenograft", "experiment": "Pharmacodynamic assessment, MDA-MB-231 xenograft model", "format": "in vivo", "conditions": "4 mg/kg iv biw×3", "source_text": "Objective: Pre-clinical pharmacodynamic study of test compounds CR20274, CR20282, and CR20285 in BALB/c nude mouse model with human breast cancer MDA-MB-231 cell subcutaneous xenograft.\n(§3) Procedures: MDA-MB-231 tumor mass was grafted subcutaneously at the right axilla of the mice, and the mice were randomized after the mean tumor volume was 200 mm^3. After administration, the animals were monitored daily for health conditions and death, and the routine examinations included observation of the effect on tumor growth and the effect of the treatment on the daily performance of the animals, such as behavioral activities, food and water intake, weight changes (measured once every other day), appearance, or other abnormal conditions. Whether the tumor growth was inhibited or delayed or the tumor was cured was also observed. The tumor volume was measured periodically. The tumor volume was calculated using the following formula: V=1/2×(a×b^2), where a and b denote the long diameter and short diameter of the tumor, respectively. The calculation formula for the tumor growth inhibition, TGI (%), is TGI %=(1−T/C)×100% (T and C are the mean tumor volume of the treatment group and control group, respectively, at a particular time point)."}, "[3]": {"tested_on": "human prostate cancer 22RV1 cell subcutaneous xenograft tumor", "experiment": "Pharmacodynamic assessment, 22RV1 xenograft model", "format": "in vivo", "conditions": "4 mg/kg iv biw×3, day 31 after grouping", "source_text": "Objective: Pre-clinical pharmacodynamic study of compounds for treating BALB/c nude mouse model with 22RV1 cell subcutaneous xenograft tumor (overexpressing PSMA).\nas §3, with “22RV1” for “MDA-MB-231”, “back” for “axilla”, “150” for “200”, “respectively.” for “respectively. The calculation formula for the tumor growth inhibition, TGI (%), is TGI %=(1−T/C)×100% (T and C are the mean tumor volume of the treatment group and control group, respectively, at a particular time point).”"}, "[4]": {"experiment": "Single-dose PK assessment, tumor concentration in HT-29 xenograft mice", "format": "in vivo, BALB/c nude male mouse", "conditions": "2 mg/kg CR20274 single tail vein injection", "method": "Objective: Single-dose PK assessment of compounds CR20214 and CR20274 in BALB/c nude male mouse model with human colorectal cancer HT-29 cell subcutaneous xenograft.\nProcedures: HT-29 cells were grafted subcutaneously on the right back of the mice (purchased from GemPharmatech Co., Ltd., weighing 20-25 g, male, aged 45-60 days), and the mice were randomized when the mean tumor volume reached about 300 mm^3. 6.25 mg/kg of CR20214 and 2 mg/kg of CR20274 were given to the HT-29 tumor-bearing mice in a single dose by tail vein injection. The tumors were taken at […], 0.25, 0.5, 1, 2, 4, 8, 24, 48 and 72 h post-dose, ground, and homogenized. The homogenate was extracted, and after centrifugation, the supernatants were injected into a triple quadrupole tandem mass spectrometer to determine the CR20274 content in the tumors."}, "[5]": {"experiment": "Single-dose PK assessment, tumor concentration in HT-29 xenograft mice", "format": "in vivo, BALB/c nude male mouse", "conditions": "2 mg/kg CR20274 single tail vein injection, 5 min"}}}
{"smiles": "CC[C@@H]1C(=O)N(C)c2cnc(Nc3ccc(-c4cn([C@H]5CC[C@@H](NCCOCCC#Cc6cccc7c6CN(C6CCC(=O)NC6=O)C7=O)CC5)nn4)cc3OC)nc2N1C1CCCC1", "note": "(some centres unmarked) [CR20274]", "values": [{"measurement": "solubility at 2 min", "setting": "Solubility study in PBS", "result": "< 900", "unit": "µg/mL"}, {"measurement": "IC50", "setting": "A549", "result": 124, "unit": "nM"}, {"measurement": "IC50", "setting": "HepG2", "result": 107, "unit": "nM"}, {"measurement": "IC50", "setting": "NCI-H460", "result": 314, "unit": "nM"}, {"measurement": "IC50", "setting": "PC-3", "result": 103, "unit": "nM"}, {"measurement": "Mean tumor volume", "setting": "[1]", "result": 1329.84, "unit": "mm^3"}, {"measurement": "TGI", "setting": "[1]", "result": 22.99, "unit": "%"}, {"measurement": "Anti-tumor effect", "setting": "[2]", "result": "no anti-tumor effect"}, {"measurement": "Mean tumor volume", "setting": "[3]", "result": 1274.47, "unit": "mm^3"}, {"measurement": "TGI", "setting": "[3]", "result": 31.55, "unit": "%"}, {"measurement": "Concentration of CR20274 in tumors (C2)", "setting": "[4]; 0.25 h", "result": 0.206, "unit": "nmol/g"}, {"measurement": "Concentration of CR20274 in tumors (C2)", "setting": "[4]; 0.5 h", "result": 0.222, "unit": "nmol/g"}, {"measurement": "Concentration of CR20274 in tumors (C2)", "setting": "[4]; 1 h", "result": 0.191, "unit": "nmol/g"}, {"measurement": "Concentration of CR20274 in tumors (C2)", "setting": "[4]; 2 h", "result": 0.180, "unit": "nmol/g"}, {"measurement": "Concentration of CR20274 in tumors (C2)", "setting": "[4]; 4 h", "result": 0.164, "unit": "nmol/g"}, {"measurement": "Concentration of CR20274 in tumors (C2)", "setting": "[4]; 8 h", "result": 0.154, "unit": "nmol/g"}, {"measurement": "Concentration of CR20274 in tumors (C2)", "setting": "[4]; 24 h", "result": 0.104, "unit": "nmol/g"}, {"measurement": "Concentration of CR20274 in tumors (C2)", "setting": "[4]; 48 h", "result": 0.064, "unit": "nmol/g"}, {"measurement": "Concentration of CR20274 in tumors (C2)", "setting": "[4]; 72 h", "result": 0.044, "unit": "nmol/g"}, {"measurement": "Concentration of CR20274 in tumors (C2)", "setting": "[5]", "result": 0.227, "unit": "nmol/g"}]}
